From ChEMBL document CHEMBL1255385, “Constitutive SoxS expression in a fluoroquinolone-resistant strain with a truncated SoxR protein and identification of a new member of the marA-soxS-rob regulon, mdtG” (2010)
Converted amounts (≈) assume the structure as drawn.

Key:
Escherichia coli [1] = test: Antimicrobial activity against fluoroquinolone-susceptible Escherichia coli PS5 harboring GyrA S83L mutant gene by Etest; format: functional
Escherichia coli [2] = test: Antimicrobial activity against fluoroquinolone-resistant Escherichia coli NorE5 harboring GyrA S83L mutant, ParC S80R mutant, truncated SoxR and constitutively active SoxS by Etest; format: functional

SMILES | MIC (Escherichia coli [1]) [µg/mL] | MIC (Escherichia coli [2]) [µg/mL]
CCn1cc(C(=O)O)c(=O)c2ccc(C)nc21 [NALIDIXIC ACID] | 1020 (≈ 4410 µM) | 2050 (≈ 8820 µM)
CC1(C)S[C@@H]2[C@H](NC(=O)[C@H](N)c3ccc(O)cc3)C(=O)N2[C@H]1C(=O)O [AMOXICILLIN] | 48 (≈ 131 µM) | > 256
CN(C)[C@@H]1C(O)=C(C(N)=O)C(=O)[C@@]2(O)C(O)=C3C(=O)c4c(O)cccc4[C@@](C)(O)[C@H]3C[C@@H]12 [TETRACYCLINE] | 2 (≈ 4.5 µM) | 8 (≈ 18 µM)
COc1cc(Cc2cnc(N)nc2N)cc(OC)c1OC [TRIMETHOPRIM] | 0.5 (≈ 1.72 µM) | 8 (≈ 27.6 µM)
CC[C@H]1OC(=O)[C@H](C)[C@@H](O[C@H]2C[C@@](C)(OC)[C@@H](O)[C@H](C)O2)[C@H](C)[C@@H](O[C@@H]2O[C@H](C)C[C@H](N(C)C)[C@H]2O)[C@](C)(O)C[C@@H](C)C(=O)[C@H](C)[C@@H](O)[C@]1(C)O [ERYTHROMYCIN] | 64 (≈ 87.2 µM) | > 256
CCn1cc(C(=O)O)c(=O)c2cc(F)c(N3CCNCC3)cc21 [NORFLOXACIN] | 0.5 (≈ 1.57 µM) | 32 (≈ 100 µM)
NCC[C@H](O)C(=O)N[C@@H]1C[C@H](N)[C@@H](O[C@H]2O[C@H](CN)[C@@H](O)[C@H](O)[C@H]2O)[C@H](O)[C@H]1O[C@H]1O[C@H](CO)[C@@H](O)[C@H](N)[C@H]1O [AMIKACIN] | 12 (≈ 20.5 µM) | 12 (≈ 20.5 µM)
O=C(N[C@H](CO)[C@H](O)c1ccc([N+](=O)[O-])cc1)C(Cl)Cl [CHLORAMPHENICOL] | 8 (≈ 24.8 µM) | 64 (≈ 198 µM)
